One data set deals with Leishmania donovani. The experiment in a line: Antitrypanosomal activity against amastigotes of Leishmania donovani MHOM/ET/67/L82 after 72 hrs by inverted microscope analysis. Format: functional, organism-based. To be noted: MHOM/ET/67/L82, 72 h.
A short description of data set [1]: Selectivity index, ratio of IC50 for rat L6 cells to IC50 for amastigotes of Leishmania donovani MHOM/ET/67/L82. To be noted: read-out: Ratio IC50. It counts as toxicity, cell-based.
For the next data set, the system named is L6. In words: Cytotoxicity against rat L6 cells after 72 hrs by alamar blue assay. It counts as cell-based. The conditions noted are these: L6, 72 h. A general note: Alamar Blue is a resazurin reagent that responds to reducing activity.
The species named for data set [2] is Bos taurus. The experiment in a line: Inhibition of electron transport protein complex 1 in bovine hear mitochondria assessed as enzyme activity per min/mg of protein using […] as substrate at 10 uM.
A short description of data set [3]: Inhibition of recombinant Trypanosoma brucei GAPDH assessed as oxidative phosphorylation of D-glyceraldehyde-3-phosphate to 1,3-bisphosphoglycerate by spectrophotometric method.
The target of data set [4] is Glyceraldehyde-3-phosphate dehydrogenase (Homo sapiens, UniProt P04406). In words: Inhibition of recombinant human GAPDH assessed as oxidative phosphorylation of D-glyceraldehyde-3-phosphate to 1,3-bisphosphoglycerate by spectrophotometric method.
Data set [5] can be described thus: Cytotoxicity against HDF after 24 hrs by MTT assay. To be noted: Homo sapiens. Background: Tetrazolium assays rely on reduction of a dye to a coloured formazan, in cell work by metabolically active cells.
In data set [6] the test system is IGROV-1. The experiment in a line: Cytotoxicity against human IGROV1 cells after 24 hrs by MTT assay. Format: functional, cell-based. The conditions noted are these: IGROV-1, 24 h.
Data set [7] deals with HT-29. The experiment in a line: Cytotoxicity against human HT-29 cells after 24 hrs by MTT assay. It counts as functional, cell-based. To be noted: HT-29, 24 h.
The subject of data set [8] is IGROV-1. The experiment in a line: Selectivity index, ratio of IC50 for HDF to IC50 for human IGROV1 cells.
Data set [9] has as its system HT-29. In words: Selectivity index, ratio of IC50 for HDF to IC50 for human HT-29 cells.
For data set [10], the species on record is Bos taurus. In words: Inhibition of electron transport protein complex 1 in bovine hear mitochondria assessed as reduction of NADH-induced oxygen consumption at 5 uM.
The species named for data set [11] is Bos taurus. The experiment in a line: Inhibition of electron transport protein complex 2 in bovine hear mitochondria assessed as reduction of succinate-induced oxygen consumption at 5 uM.
The species named for data set [12] is Bos taurus. In words: Inhibition of electron transport protein complex 1 in bovine hear mitochondria assessed as reduction of NADH-induced ROS production at 10 uM by fluorescence plate reader analysis.
Data set [13] relates to Trypanosoma brucei rhodesiense. In words: Antitrypanosomal activity against bloodstream forms of Trypanosoma brucei rhodesiense STIB 900 after 72 hrs by alamar blue assay. It counts as functional, organism-based. The conditions noted are these: STIB 900, 72 h.
A short description of data set [14]: Selectivity index, ratio of IC50 for rat L6 cells to IC50 for bloodstream forms of Trypanosoma brucei rhodesiense STIB 900. Format: toxicity, cell-based. To be noted: read-out: Ratio IC50.
The subject of the next data set is Trypanosoma brucei. In words: Inhibition of recombinant Trypanosoma brucei GAPDH assessed as oxidative phosphorylation of D-glyceraldehyde-3-phosphate to 1,3-bisphosphoglycerate at 5 uM by spectrophotometric method relative to 2-phenoxy-1,4-naphthoquinone.
Another data set has as its system Trypanosoma cruzi. The experiment in a line: Antitrypanosomal activity against trypomastigote forms of Trypanosoma cruzi Tulahuen C4 expressing LacZ gene infected in rat L6 cells after 96 hrs by inverted microscope analysis. Format: functional, organism-based. To be noted: Tulahuen C4, L6, 96 h.
Data set [15] is described as follows: Selectivity index, ratio of IC50 for rat L6 cells to IC50 for trypomastigote forms of Trypanosoma cruzi Tulahuen C4. Format: toxicity, cell-based. To be noted: read-out: Ratio IC50.
The species named for data set [16] is Bos taurus. In words: Inhibition of electron transport protein complex 1 in bovine hear mitochondria assessed as reduction of NADH-induced oxygen consumption up to 10 uM.

The source made the active and inactive calls. No cut-off for these calls is given here.

Glyceraldehyde-3-phosphate dehydrogenase, sequence (P04406 whole entry): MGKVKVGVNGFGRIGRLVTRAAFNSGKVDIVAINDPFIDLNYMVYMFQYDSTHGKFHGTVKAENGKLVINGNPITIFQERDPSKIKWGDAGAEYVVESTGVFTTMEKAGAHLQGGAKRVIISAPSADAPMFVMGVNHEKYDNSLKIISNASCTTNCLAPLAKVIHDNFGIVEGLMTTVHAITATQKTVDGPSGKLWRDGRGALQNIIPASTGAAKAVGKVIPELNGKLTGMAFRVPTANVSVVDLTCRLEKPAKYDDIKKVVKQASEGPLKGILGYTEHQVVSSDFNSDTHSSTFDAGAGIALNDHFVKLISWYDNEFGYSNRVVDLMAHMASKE

The term IC50 denotes the concentration that inhibits the measured activity by half. Broadly, the inhibition is the share of the control response that was lost under treatment. Consider `COc1cccc2c1C(=O)C(Oc1ccc(F)cc1)=CC2=O`, for which the half-inhibitory concentration (IC50) in the data set on Leishmania donovani was 5.97 µM; in the data set on L6, 0.77 µM; in data set [3], 9.92 µM; in [4], 1.34 µM; in data set [5] it was 11.9 µM; in the data set on IGROV-1 [6] it was 1.73 µM. For the same compound, the results for the IC50 (with HT-29 [7]; in [13]) were 2.7 µM and 4.76 µM, respectively. Besides, the selectivity ratio was found to be 0.13 in [1] and 0.16 in data set [14]. Besides, the Activity in the data set filed under Bos taurus [2] came to 0.053 µmol/min/mg. For the same compound, the “Ratio IC50” value in the data set on IGROV-1 [8] is 6.87; with HT-29 [9], 4.4. The inhibition in the data set filed under Bos taurus [10] was determined as 40%. In addition, the inhibition result in the data set filed under Bos taurus [11] was “inactive”. The inhibition result in the data set filed under Bos taurus [12] is “Active”.
`O=C1C(Oc2ccccc2)=CC(=O)c2c(O)cccc21`: the IC50 with Leishmania donovani stood at 8.41 µM; in the data set with L6, 0.26 µM; in data set [3], 11.6 µM; in data set [4] it was 2.41 µM; in data set [5], 15 µM; with IGROV-1 [6], 2.52 µM. Besides, the IC50 in the data set with HT-29 [7] is 2.42 µM; in [13], 4.43 µM. Besides, the selectivity ratio was determined as 0.03 in [1] and 0.06 in data set [14]. Besides, the inhibition with Trypanosoma brucei was found to be 88%; in the data set listed under Bos taurus [10] it was 40%. Moreover, the results for the “Ratio IC50” value with IGROV-1 [8] and in the data set with HT-29 [9] were 5.96 and 6.2, respectively. For the same compound, the inhibition entry in the data set listed under Bos taurus [11] was “inactive”. For the same compound, in the data set filed under Bos taurus [12], the inhibition result is “Active”.
Turning to `Cc1ccc(OC2=CC(=O)c3ccccc3C2=O)cc1`, the concentration for half-maximal inhibition (IC50) in the data set on Trypanosoma cruzi amounted to 1.62 µM; with Leishmania donovani, 3.41 µM; in the data set with L6, 3.82 µM; in data set [13], 2.28 µM. For the same compound, the figures for the selectivity ratio in data set [15], in [1] and in [14] were 2.35, 1.12 and 1.67, respectively. Besides, in the data set with Trypanosoma brucei, the inhibition was determined as 24%. Also, the inhibition result in the data set filed under Bos taurus [11] is “inactive”.
With `COc1ccc(OC2=CC(=O)c3cc4ccccc4cc3C2=O)cc1`, the IC50 in the data set on Leishmania donovani came to 2.55 µM; in the data set with L6 it was 0.24 µM; in data set [3], 15.6 µM; in data set [4], 1.41 µM; in data set [5], 17.1 µM; in the data set on IGROV-1 [6] it was 2.31 µM. Besides, the results for the IC50 (in the data set on HT-29 [7]; in data set [13]) were 3.83 µM and 0.38 µM, respectively. Further, the values for the selectivity ratio in [1] and in [14] were 0.09 and 0.63, respectively. In addition, the inhibition with Trypanosoma brucei stood at 92%; in the data set filed under Bos taurus [10], 40%. For the same compound, the Activity in the data set filed under Bos taurus [2] turned out to be 0.029 µmol/min/mg. Moreover, the “Ratio IC50” value was found to be 7.4 in the data set with IGROV-1 [8] and 4.46 in the data set on HT-29 [9]. Besides, the inhibition entry in the data set filed under Bos taurus [11] is “inactive”. For the same compound, in the data set filed under Bos taurus [12], the inhibition entry is “Active”.
For the compound `O=C1C=C(Oc2ccccc2)C(=O)c2ccccc21`, the Activity in the data set filed under Bos taurus [2] came out at 0.052 µmol/min/mg. Moreover, the half-maximal inhibitory concentration (IC50) in data set [3] was found to be 5.73 µM; in data set [4], 0.59 µM; in data set [5], 9.84 µM; in the data set with IGROV-1 [6], 3.43 µM; in the data set on HT-29 [7] it was 4.4 µM. In addition, the figures for the “Ratio IC50” value in the data set on IGROV-1 [8] and in the data set on HT-29 [9] were 2.87 and 2.24, respectively. The inhibition result in the data set filed under Bos taurus [16] was “inactive”. Besides, the inhibition entry in the data set filed under Bos taurus [12] was “Active”.

These data come from ChEMBL document CHEMBL3603776, “2-Phenoxy-1,4-naphthoquinones: From a Multitarget Antitrypanosomal to a Potential Antitumor Profile” (J Med Chem, 2015).
